Like-named read-outs stand apart in the source and are kept apart here.
Experiments:
[1] = Stability of cannabinoid and Vitamin E components of Beverage 2 (AB Red) stored at 8° C. and 21-25° C., LCMSMS over 570 days
[2] = assay type: physicochemical; conditions: stored at room temperature (21-25° C.)
Description: At each time period, 0.05 g of powder was dissolved in 10 ml-15 of ethanol, diluted to fall within the analytical range, and injected into the LCMSMS for analysis.

With `Cc1c(C)c2c(c(C)c1O)CC[C@@](C)(CCC[C@H](C)CCC[C@H](C)CCCC(C)C)O2` [α-Tocopherol] the “Stability of Vitamin Es in AB Red” value ([1]; 8° C., 0 days) was 25.3 µg/mL, the “Stability of Vitamin Es in AB Red” value ([1]; 8° C., 1 days) was 25.2 µg/mL and the “Stability of Vitamin Es in AB Red” value ([1]; 8° C., 2 days) was 24.9 µg/mL. For the same compound, the “Stability of Vitamin Es in AB Red” value ([1]; 8° C., 3 days) was 25.3 µg/mL, the “Stability of Vitamin Es in AB Red” value ([1]; 8° C., 5 days) was 24.2 µg/mL and the “Stability of Vitamin Es in AB Red” value ([1]; 8° C., 8 days) was 23.7 µg/mL. For the same compound, the “Stability of Vitamin Es in AB Red” value ([1]; 8° C., 9 days) was 24.6 µg/mL, the “Stability of Vitamin Es in AB Red” value ([1]; 8° C., 10 days) was 24.9 µg/mL and the “Stability of Vitamin Es in AB Red” value ([1]; 8° C., 11 days) was 23.9 µg/mL. For the same compound, the “Stability of Vitamin Es in AB Red” value ([1]; 8° C., 12 days) was 24.4 µg/mL, the “Stability of Vitamin Es in AB Red” value ([1]; 8° C., 15 days) was 25.6 µg/mL and the “Stability of Vitamin Es in AB Red” value ([1]; 8° C., 16 days) was 24.5 µg/mL. For the same compound, the “Stability of Vitamin Es in AB Red” value ([1]; 8° C., 17 days) was 23.6 µg/mL, the “Stability of Vitamin Es in AB Red” value ([1]; 8° C., 18 days) was 24.1 µg/mL and the “Stability of Vitamin Es in AB Red” value ([1]; 8° C., 19 days) was 24.0 µg/mL. The “Stability of Vitamin Es in AB Red” value ([1]; 8° C., 22 days) was 25.0 µg/mL, the “Stability of Vitamin Es in AB Red” value ([1]; 8° C., 23 days) was 23.2 µg/mL and the “Stability of Vitamin Es in AB Red” value ([1]; 8° C., 24 days) was 24.3 µg/mL. For the same compound, the “Stability of Vitamin Es in AB Red” value ([1]; 8° C., 25 days) was 23.6 µg/mL, the “Stability of Vitamin Es in AB Red” value ([1]; 8° C., 26 days) was 25.2 µg/mL and the “Stability of Vitamin Es in AB Red” value ([1]; 8° C., 29 days) was 23.5 µg/mL. For the same compound, the “Stability of Vitamin Es in AB Red” value ([1]; 8° C., 30 days) was 24.2 µg/mL, the “Stability of Vitamin Es in AB Red” value ([1]; 8° C., 60 days) was 24.2 µg/mL and the “Stability of Vitamin Es in AB Red” value ([1]; 8° C., 90 days) was 23.1 µg/mL. For the same compound, the “Stability of Vitamin Es in AB Red” value ([1]; 8° C., 120 days) was 25.2 µg/mL, the “Stability of Vitamin Es in AB Red” value ([1]; 8° C., 150 days) was 25.4 µg/mL and the “Stability of Vitamin Es in AB Red” value ([1]; 8° C., 180 days) was 23.6 µg/mL. For the same compound, the “Stability of Vitamin Es in AB Red” value ([1]; 8° C., 210 days) was 23.5 µg/mL, the “Stability of Vitamin Es in AB Red” value ([1]; 8° C., 240 days) was 23.6 µg/mL and the “Stability of Vitamin Es in AB Red” value ([1]; 8° C., 270 days) was 23.6 µg/mL. The “Stability of Vitamin Es in AB Red” value ([1]; 8° C., 300 days) was 23.1 µg/mL, the “Stability of Vitamin Es in AB Red” value ([1]; 8° C., 330 days) was 22.9 µg/mL and the “Stability of Vitamin Es in AB Red” value ([1]; 8° C., 390 days) was 23.1 µg/mL. For the same compound, the “Stability of Vitamin Es in AB Red” value ([1]; 8° C., 420 days) was 22.3 µg/mL, the “Stability of Vitamin Es in AB Red” value ([1]; 8° C., 450 days) was 22.7 µg/mL and the “Stability of Vitamin Es in AB Red” value ([1]; 8° C., 480 days) was 21.8 µg/mL. For the same compound, the “Stability of Vitamin Es in AB Red” value ([1]; 8° C., 510 days) was 22.0 µg/mL, the “Stability of Vitamin Es in AB Red” value ([1]; 8° C., 540 days) was 21.8 µg/mL and the “Stability of Vitamin Es in AB Red” value ([1]; 8° C., 570 days) was 21.5 µg/mL. For the same compound, the “Stability of Vitamin Es in AB Red” value ([1]; 21-25° C., 0 days) was 25.3 µg/mL, the “Stability of Vitamin Es in AB Red” value ([1]; 21-25° C., 1 days) was 24.4 µg/mL and the “Stability of Vitamin Es in AB Red” value ([1]; 21-25° C., 2 days) was 24.1 µg/mL. For the same compound, the “Stability of Vitamin Es in AB Red” value ([1]; 21-25° C., 3 days) was 23.8 µg/mL, the “Stability of Vitamin Es in AB Red” value ([1]; 21-25° C., 5 days) was 22.9 µg/mL and the “Stability of Vitamin Es in AB Red” value ([1]; 21-25° C., 8 days) was 24.5 µg/mL. The “Stability of Vitamin Es in AB Red” value ([1]; 21-25° C., 9 days) was 23.3 µg/mL, the “Stability of Vitamin Es in AB Red” value ([1]; 21-25° C., 10 days) was 23.0 µg/mL and the “Stability of Vitamin Es in AB Red” value ([1]; 21-25° C., 11 days) was 24.4 µg/mL. For the same compound, the “Stability of Vitamin Es in AB Red” value ([1]; 21-25° C., 12 days) was 23.4 µg/mL, the “Stability of Vitamin Es in AB Red” value ([1]; 21-25° C., 15 days) was 24.8 µg/mL and the “Stability of Vitamin Es in AB Red” value ([1]; 21-25° C., 16 days) was 25.1 µg/mL. The “Stability of Vitamin Es in AB Red” value ([1]; 21-25° C., 17 days) was 24.4 µg/mL, the “Stability of Vitamin Es in AB Red” value ([1]; 21-25° C., 18 days) was 24.9 µg/mL and the “Stability of Vitamin Es in AB Red” value ([1]; 21-25° C., 19 days) was 25.4 µg/mL. For the same compound, the “Stability of Vitamin Es in AB Red” value ([1]; 21-25° C., 22 days) was 25.4 µg/mL, the “Stability of Vitamin Es in AB Red” value ([1]; 21-25° C., 23 days) was 24.6 µg/mL and the “Stability of Vitamin Es in AB Red” value ([1]; 21-25° C., 24 days) was 23.5 µg/mL. For the same compound, the “Stability of Vitamin Es in AB Red” value ([1]; 21-25° C., 25 days) was 25.5 µg/mL, the “Stability of Vitamin Es in AB Red” value ([1]; 21-25° C., 26 days) was 24.3 µg/mL and the “Stability of Vitamin Es in AB Red” value ([1]; 21-25° C., 29 days) was 24.4 µg/mL. For the same compound, the “Stability of Vitamin Es in AB Red” value ([1]; 21-25° C., 30 days) was 24.6 µg/mL, the “Stability of Vitamin Es in AB Red” value ([1]; 21-25° C., 60 days) was 24.4 µg/mL and the “Stability of Vitamin Es in AB Red” value ([1]; 21-25° C., 90 days) was 24.3 µg/mL. The “Stability of Vitamin Es in AB Red” value ([1]; 21-25° C., 120 days) was 23.7 µg/mL, the “Stability of Vitamin Es in AB Red” value ([1]; 21-25° C., 150 days) was 23.4 µg/mL and the “Stability of Vitamin Es in AB Red” value ([1]; 21-25° C., 180 days) was 23.3 µg/mL. For the same compound, the “Stability of Vitamin Es in AB Red” value ([1]; 21-25° C., 210 days) was 22.7 µg/mL, the “Stability of Vitamin Es in AB Red” value ([1]; 21-25° C., 240 days) was 23.1 µg/mL and the “Stability of Vitamin Es in AB Red” value ([1]; 21-25° C., 270 days) was 23.1 µg/mL. For the same compound, the “Stability of Vitamin Es in AB Red” value ([1]; 21-25° C., 300 days) was 23.5 µg/mL, the “Stability of Vitamin Es in AB Red” value ([1]; 21-25° C., 330 days) was 22.6 µg/mL and the “Stability of Vitamin Es in AB Red” value ([1]; 21-25° C., 390 days) was 22.7 µg/mL. For the same compound, the “Stability of Vitamin Es in AB Red” value ([1]; 21-25° C., 420 days) was 22.5 µg/mL, the “Stability of Vitamin Es in AB Red” value ([1]; 21-25° C., 450 days) was 22.3 µg/mL and the “Stability of Vitamin Es in AB Red” value ([1]; 21-25° C., 480 days) was 21.6 µg/mL. The “Stability of Vitamin Es in AB Red” value ([1]; 21-25° C., 510 days) was 21.4 µg/mL, the “Stability of Vitamin Es in AB Red” value ([1]; 21-25° C., 540 days) was 21.0 µg/mL and the “Stability of Vitamin Es in AB Red” value ([1]; 21-25° C., 570 days) was 21.4 µg/mL. The “Stability in Powder Concentrate (content by LCMSMS)” value (“Stability in Powder Concentrate” below) ([2]; day 0) was 4.85 mg/g powder, the “Stability in Powder Concentrate” value ([2]; day 1) was 4.89 mg/g powder and the “Stability in Powder Concentrate” value ([2]; day 2) was 4.79 mg/g powder. For the same compound, the “Stability in Powder Concentrate” value ([2]; day 3) was 4.69 mg/g powder, the “Stability in Powder Concentrate” value ([2]; day 5) was 4.99 mg/g powder and the “Stability in Powder Concentrate” value ([2]; day 8) was 4.69 mg/g powder. For the same compound, the “Stability in Powder Concentrate” value ([2]; day 9) was 4.75 mg/g powder, the “Stability in Powder Concentrate” value ([2]; day 10) was 4.77 mg/g powder and the “Stability in Powder Concentrate” value ([2]; day 11) was 5.04 mg/g powder. For the same compound, the “Stability in Powder Concentrate” value ([2]; day 12) was 5.01 mg/g powder, the “Stability in Powder Concentrate” value ([2]; day 15) was 5.07 mg/g powder and the “Stability in Powder Concentrate” value ([2]; day 16) was 4.96 mg/g powder. For the same compound, the “Stability in Powder Concentrate” value ([2]; day 17) was 4.94 mg/g powder, the “Stability in Powder Concentrate” value ([2]; day 18) was 4.77 mg/g powder and the “Stability in Powder Concentrate” value ([2]; day 19) was 5.04 mg/g powder. For the same compound, the “Stability in Powder Concentrate” value ([2]; day 22) was 4.94 mg/g powder, the “Stability in Powder Concentrate” value ([2]; day 23) was 4.91 mg/g powder and the “Stability in Powder Concentrate” value ([2]; day 24) was 5.00 mg/g powder. For the same compound, the “Stability in Powder Concentrate” value ([2]; day 25) was 5.06 mg/g powder, the “Stability in Powder Concentrate” value ([2]; day 26) was 4.84 mg/g powder and the “Stability in Powder Concentrate” value ([2]; day 29) was 4.85 mg/g powder. For the same compound, the “Stability in Powder Concentrate” value ([2]; day 30) was 4.83 mg/g powder, the “Stability in Powder Concentrate” value ([2]; day 60) was 4.91 mg/g powder and the “Stability in Powder Concentrate” value ([2]; day 90) was 4.96 mg/g powder. For the same compound, the “Stability in Powder Concentrate” value ([2]; day 120) was 4.93 mg/g powder, the “Stability in Powder Concentrate” value ([2]; day 150) was 4.69 mg/g powder and the “Stability in Powder Concentrate” value ([2]; day 180) was 4.70 mg/g powder. For the same compound, the “Stability in Powder Concentrate” value ([2]; day 210) was 4.84 mg/g powder, the “Stability in Powder Concentrate” value ([2]; day 240) was 5.03 mg/g powder and the “Stability in Powder Concentrate” value ([2]; day 270) was 4.78 mg/g powder. For the same compound, the “Stability in Powder Concentrate” value ([2]; day 300) was 4.81 mg/g powder, the “Stability in Powder Concentrate” value ([2]; day 330) was 4.81 mg/g powder and the “Stability in Powder Concentrate” value ([2]; day 360) was 4.83 mg/g powder. The “Stability in Powder Concentrate” value ([2]; day 390) was 4.91 mg/g powder, the “Stability in Powder Concentrate” value ([2]; day 420) was 4.69 mg/g powder and the “Stability in Powder Concentrate” value ([2]; day 450) was 5.00 mg/g powder. The “Stability in Powder Concentrate” value ([2]; day 480) was 4.98 mg/g powder, the “Stability in Powder Concentrate” value ([2]; day 510) was 5.02 mg/g powder and the “Stability in Powder Concentrate” value ([2]; day 540) was 5.03 mg/g powder. The “Stability in Powder Concentrate” value ([2]; day 570) was 4.72 mg/g powder.
